# PubChem BioAssay AID743259 (The Scripps Research Institute Molecular Screening Center, 2014)
# Active and inactive are the calls of the source. No rule for the calls is given here.
# Molecular target: Disintegrin and metalloproteinase domain-containing protein 10 (Homo sapiens) (UniProt O14672)
# Test: ADAM10 protease inhibitors, dose response, selectivity assay for ADAM17 exosite inhibitor project, biochemical, FRET peptide substrate, recombinant human ADAM10 (AID 743259)
# Conditions: Recombinant ADAM10, FRET peptide substrate cleavage
# Sequence of Disintegrin and metalloproteinase domain-containing protein 10 (Homo sapiens) (O14672 214-748 limits assumed): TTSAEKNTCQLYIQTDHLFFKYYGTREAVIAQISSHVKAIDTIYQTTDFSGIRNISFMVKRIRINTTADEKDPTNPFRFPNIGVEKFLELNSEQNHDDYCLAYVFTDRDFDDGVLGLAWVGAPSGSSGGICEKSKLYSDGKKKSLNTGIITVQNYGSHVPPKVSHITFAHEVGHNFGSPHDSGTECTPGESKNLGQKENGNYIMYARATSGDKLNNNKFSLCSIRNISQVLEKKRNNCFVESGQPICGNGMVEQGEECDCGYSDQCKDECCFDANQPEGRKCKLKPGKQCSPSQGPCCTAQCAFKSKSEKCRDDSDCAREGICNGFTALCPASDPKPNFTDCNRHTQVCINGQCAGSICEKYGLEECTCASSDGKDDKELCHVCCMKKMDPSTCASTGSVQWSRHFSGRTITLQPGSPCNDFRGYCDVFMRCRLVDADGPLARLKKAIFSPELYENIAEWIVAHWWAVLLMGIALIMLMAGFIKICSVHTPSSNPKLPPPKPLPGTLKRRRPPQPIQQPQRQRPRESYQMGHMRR
row,SMILES,IC50
1,C/C(=N\N=C(/N)SC1CC(=O)N(c2ccc(Br)cc2)C1=O)c1cccs1 (centres undefined),inactive
2,CC(=O)c1cccc(NC(=O)C(OC(=O)c2ccccc2NS(=O)(=O)c2cccs2)c2ccccc2)c1 (centres undefined),> 69.5 µM (inactive)
3,CC(=NNC(=O)CSc1nnc(-c2ccc(C(C)(C)C)cc2)n1-c1ccccc1)c1cccc2ccccc12,> 69.5 µM (inactive)
4,Oc1c(C(c2ccccn2)N2CCCCC2)cc(Cl)c2cccnc12 (centres undefined),9.05 µM
5,COCCN=c1scc(-c2cc(OC)c(OC)c(OC)c2)n1/N=C/c1c(C)[nH]c2ccccc12,> 69.5 µM (inactive)
6,O=C(NCC1CCCO1)C(c1cccs1)N(Cc1ccccc1)C(=O)c1ccc(-c2ccccc2)[nH]1 (centres undefined),> 69.5 µM (inactive)
7,COc1ccc(N(CC(O)Cn2c3ccccc3c3ccccc32)S(=O)(=O)c2ccccc2)cc1 (centres undefined),> 69.5 µM (inactive)
8,C/C(=N\N=C(/N)SC1CC(=O)N(c2ccccc2)C1=O)c1cccs1 (centres undefined),9.96 µM

# Continued, values first:
row,IC50,SMILES
1,inactive,O=C(CC1SC(=O)N(c2ccccc2)C1=O)Nc1ccccc1 (centres undefined)
2,> 69.5 µM (inactive),Cc1cc(SCC(=O)c2ccc(O)c(O)c2)n2nc(C)c(-c3ccccc3)c2n1
3,> 69.5 µM (inactive),C=C(C)CN1CCN(S(=O)(=O)c2ccc(C)c(N(C)S(=O)(=O)c3ccc(C)cc3)c2C)CC1
4,inactive,CCOc1ccc(NC(=O)CC2SC(=O)N(c3ccccc3)C2=O)cc1 (centres undefined)
5,> 69.5 µM (inactive),COC(=O)c1cccc(Cn2c(Cl)c(/C=N/Nc3ccccc3C)sc2=O)c1
6,> 69.5 µM (inactive),COCCN=c1scc(-c2cc(OC)ccc2OC)n1/N=C/c1c[nH]c2ccccc12
7,> 69.5 µM (inactive),O=C1OCCN1C(=O)[C@H]1[C@H](c2ccc([N+](=O)[O-])cc2)C(c2ccccc2)=NN1c1ccc(Br)cc1
8,> 69.5 µM (inactive),COc1cccc(C2C(C#N)=C(N)Oc3c2oc(CO)cc3=O)c1 (centres undefined)
9,inactive,CC(C)(C)c1ccc(OCc2nc(-c3ccccn3)no2)c(Br)c1
10,> 69.5 µM (inactive),Cc1ccccc1NC(C)C(=O)N/N=C/c1ccccc1OCc1cccc(Br)c1 (centres undefined)
11,inactive,CCCOC(=O)c1ccc(Oc2cn[nH]c2-c2ccc(OCC)cc2O)cc1
